Assay results as given in the supplement of paper PMC10307832.

What was measured:
Experiment in all cases: relative viability (nuclei count vs DMSO), 5 days (fraction); higher = more cells survive
[1] = compound: C1=CC=C2C(=C1)C=CC(=C2SSC3=C(C=CC4=CC=CC=C43)O)O [IPA-3] + CCNC(=O)c1noc(-c2cc(C(C)C)c(O)cc2O)c1-c1ccc(CN2CCOCC2)cc1 [Luminespib] (partner 0.01 µM)
In short: (§1)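 Lung cancer cell lines were pin-tool dosed in 1536-well plates on the day after seeding, with either a lone drug or a fixed anchor-drug dose plus five library-drug doses (not always all listed) in √10 steps. Nuclei were counted on 4× images after 5 days. Relative viability is the ratio of treated-well to vehicle-well nuclei counts, with each value a median of duplicate plates.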

[2] = compound: C1=CC=C2C(=C1)C=CC(=C2SSC3=C(C=CC4=CC=CC=C43)O)O [IPA-3] + Cc1nc(Nc2ncc(C(=O)Nc3c(C)cccc3Cl)s2)cc(N2CCN(CCO)CC2)n1 [Dasatinib] (partner 0.075 µM)
In short: as §1

[3] = compound: Cc1ccc(-n2nc(C(C)(C)C)cc2NC(=O)Nc2ccc(OCCN3CCOCC3)c3ccccc23)cc1 [Doramapimod] + COc1cccc2cc(-c3nc([C@H]4CC[C@H](C(=O)O)CC4)n4ncnc(N)c34)[nH]c12 [OSI-027] (partner 0.5 µM)
In short: as §1

[4] = compound: Cn1c(Nc2ccc(C(F)(F)F)cc2)nc2cc(Oc3ccnc(-c4ncc(C(F)(F)F)[nH]4)c3)ccc21 [RAF265] + O=C(CCCCCCC(=O)Nc1ccccc1)NO [Vorinostat] (partner 1 µM)
In short: as §1

Cell Line	relative viability ([1]; first compound 0.2 µM)	relative viability ([1]; first compound 0.6325 µM)	relative viability ([1]; first compound 2 µM)	relative viability ([1]; first compound 6.325 µM)	relative viability ([1]; first compound 20 µM)	relative viability ([2]; first compound 0.2 µM)	relative viability ([2]; first compound 0.6325 µM)	relative viability ([2]; first compound 2 µM)	relative viability ([2]; first compound 6.325 µM)	relative viability ([2]; first compound 20 µM)	relative viability ([3]; first compound 0.02 µM)	relative viability ([3]; first compound 0.06325 µM)	relative viability ([3]; first compound 0.2 µM)	relative viability ([3]; first compound 0.6325 µM)	relative viability ([3]; first compound 2 µM)	relative viability ([4]; first compound 0.01 µM)	relative viability ([4]; first compound 0.03162 µM)	relative viability ([4]; first compound 0.1 µM)	relative viability ([4]; first compound 0.3162 µM)	relative viability ([4]; first compound 1 µM)
NCI-H2126	0.998	0.819	0.921	0.902	1.1	0.709	0.58	0.68	0.633	0.545	0.79	0.689	0.631	0.71	0.58	0.841	0.771	0.733	0.673	0.464
NCI-H2170	0.691	0.574	0.772	0.748	0.683	0.573	0.339	0.467	0.614	0.613	0.724	0.784	0.716	0.712	0.677	0.859	0.859	0.761	0.393	0.521
NCI-H2228	0.155	0.181	0.183	0.175	0.145	0.571	0.51	0.529	0.62	0.557	0.779	0.513	0.571	0.671	0.388	0.554	0.653	0.52	0.324	0.275
NCI-H2342	0.701	0.677	0.747	0.802	0.765	0.308	0.346	0.343	0.375	0.305	0.622	0.657	0.614	0.776	0.542	0.714	0.809	0.851	0.667	0.764
NCI-H2347	0.525	0.0323	0.357	0.269	0.45	0.357	0.305	0.336	0.41	0.336	0.509	–	0.474	0.452	0.423	0.611	0.517	0.564	0.458	0.344
NCI-H2405	0.722	0.599	0.688	0.666	0.762	0.221	0.204	0.204	0.163	0.211	0.654	0.596	0.606	0.74	0.598	1.02	0.888	1.08	0.683	0.465
NCI-H3122	0.0957	0.0861	0.108	0.074	0.116	0.804	0.751	0.847	0.919	0.926	0.956	0.853	0.938	1.04	1.01	1.02	1.01	0.93	0.965	0.631
PC-3 [JPC-3]	0.742	0.666	0.719	0.641	0.801	1.08	1.02	1.04	0.865	1.01	0.845	0.735	0.742	0.779	0.749	0.942	0.78	1.08	0.455	0.487
PC-14	0.165	0.151	0.189	0.161	0.142	0.29	0.278	0.271	0.268	0.309	0.933	0.671	0.872	1.01	0.635	0.743	0.642	0.632	–	0.619
RERF-LC-KJ	1.46	1.27	1.29	1.39	1.14	0.983	0.729	0.837	0.759	0.789	0.624	0.543	0.603	0.6	0.554	0.704	0.647	0.772	0.649	0.582
SK-LU-1	0.207	0.17	0.225	0.161	0.228	0.171	0.148	0.204	0.179	0.193	0.332	0.382	0.379	0.35	0.383	0.715	0.449	0.443	0.36	0.262
SK-MES-1	0.753	0.691	0.831	0.782	0.808	0.339	0.329	0.47	0.333	0.44	0.643	0.571	0.565	0.573	0.521	1.12	0.772	0.519	0.398	0.343
SW 900	0.211	0.184	0.165	0.181	0.212	0.74	0.703	0.667	0.781	0.543	0.547	0.579	0.858	0.599	0.523	0.544	0.494	0.503	0.381	0.227
SW 1573	0.139	0.215	0.459	0.158	0.0643	0.689	0.395	0.589	0.452	0.151	0.585	0.514	0.485	0.586	0.352	1	0.763	0.834	0.792	0.582
